Experimental data: US6756504B2, “Sphingolipids” (Yissum Research Development Company of the Hebrew …, priority 2000, dated 2004)

How the values were obtained:
Assay type in all cases: cell-based, Human
HL60 cells = assay: Apoptosis in HL60 cells, propidium iodide flow cytometry (FACS)
Experimental: The apoptotic effect of three different compounds was further examined on HL60 cells using a flow cytometry method. […] Washed cells were then treated with 5% Triton and stained with propidium iodide 0.5% mg in 0.1% sodium citrate pH 7.4. Analysis was performed using a Becton Dickinson Fluorescence Activated Cell Sorter (FACS).

[1] = system: Bod3-SPM (sphingomyelin) synthesis in HL60 cells; assay: Sphingolipid metabolism from Bodipy-C3-ceramide: Bod3-SPM in HL60; settings: HL60, 3 hours, 2.5 μM Bodipy-C3-ceramide; read-out: od 3-SPM (IC50 for reduction of Bod3-SPM, cell+medium)
Experimental: (§1) In order to examine the effect of the different compounds on sphingolipids metabolism, different cell lines were incubated with increasing concentrations of different compounds of the invention in the presence of 2.5 μM Bodipy-C3-ceramide that was added to the culture medium as a solution in dimethylsulfoxide (not exceeding 0.1% DMSO of the final volium). After 3 hours, cells and medium were collected and centrifuged. Cells were next extracted with chloroform-methanol containing 2% acetic acid 1:1 (by volume) and the medium was shaken with an equal volume of chloroform-methanol, 1:1 (by volume). The phases were separated by centrifugation and the lower chloroform phase was collected. The solvents were evaporated and applied to thin layer chromatography silica gel plates (Whatman 4865-821) with a concentrating zone.
(§2) Plates were developed as follows: For medium: in chloroform-methanol-H2O, 75:25:4 by volume. For cells: plates were first developed with chloroform-methanol, 9:1, then dried and re-run in chloroform-methanol: H2O, 65:35:4.
(§3) Standards of Bodipy-C3-ceramide: Bodipy-C3-glucosylceramide (Bod3-GC) and Bodipy C3 sphingomyelin (Bod3-SPM) were used as markers. The fluorescence of the respective Bod3-SPM and Bod3-GC spots was quantified using a Fuji FLA-2000 scanner.

[2] = system: Bod3-GC (glucosylceramide) synthesis in HL60 cells; assay: Sphingolipid metabolism from Bodipy-C3-ceramide: Bod3-GC in HL60; settings: HL60, 3 hours, 2.5 μM Bodipy-C3-ceramide; read-out: od 3-GC (IC50 for Bod3-GC reduction)
Experimental: as §1, §2, §3

[3] = system: Bod3-SPM synthesis in MCF-NCi cells; assay: Sphingolipid metabolism: Bod3-SPM in MCF-NCi; settings: 3 hours, 2.5 μM Bodipy-C3-ceramide, read-out: od 3-SPM (IC50 for reduction of Bod3-SPM)
Experimental: as §1, §2, §3

SMILES: CCCCCCNc1ccc([C@@H](O)[C@@H](CO)NCCCCCC)cc1 [AD-2665, (2R,3R)-2-(N-hexylamine)-1-(4-N-hexylaminophenyl)-1,3-propanediol]
- apoptotic cells (HL60 cells; HL60, 30 min, 40 μM): 5%
- apoptotic cells (HL60 cells; HL60, 3 hours, 10 μM): about 8%
- apoptotic cells (HL60 cells; HL60, 3 hours, 20 μM): 26%
- apoptotic cells (HL60 cells; HL60, 24 hours, 10 μM): 25%
- IC50 [1]: 4 µM
- IC50 [2]: 5 µM
- IC50 [3]: 7 µM
